According to the supplement of paper PMC10307832:

What was measured:
Experiment in all cases: relative viability (nuclei count vs DMSO), 5 days (fraction); higher = more cells survive
[1] = system: NCI-H1703
How it was run: (§1)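 Nuclei were stained with Hoechst during a one-step fixation (final 0.05% Triton X-100, 1% formaldehyde, 1 ug/ml Hoechst) carried out 5 days after dosing, then counted on 4× images. The cells, lung cancer lines in 1536-well plates, had been dosed by pin tool the day after seeding with one drug alone or a fixed anchor-drug dose plus five library-drug doses (not always all listed) in √10 steps. Relative viability is the nuclei count in treated wells divided by that in vehicle wells, and each value is the median of duplicate plates.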

[2] = system: NCI-H2342
How it was run: as §1

[3] = system: NCI-H1648
How it was run: as §1

[4] = system: NCI-H522
How it was run: as §1

[5] = system: SW 900
How it was run: as §1

[6] = system: NCI-H1563
How it was run: as §1

[7] = system: A549
How it was run: as §1

[8] = system: IA-LM
How it was run: as §1

[9] = system: Calu-6
How it was run: as §1

[10] = system: EBC-1
How it was run: as §1

[11] = system: NCI-H1299
How it was run: as §1

Cc1cnc(-c2cnc(NCCNc3ccc(C#N)cn3)nc2-c2ccc(Cl)cc2Cl)[nH]1 + NC(=O)Nc1cc(-c2cccc(F)c2)sc1C(=O)N[C@H]1CCCNC1 [AZD7762] (partner 0.2 µM)
relative viability ([1]; first compound 0.08 µM): 0.14 | relative viability ([1]; first compound 0.253 µM): 0.128 | relative viability ([1]; first compound 2.53 µM): 0.13 | relative viability ([2]; first compound 0.08 µM): 0.516 | relative viability ([2]; first compound 0.253 µM): 0.473 | relative viability ([2]; first compound 0.8 µM): 0.484 | relative viability ([2]; first compound 2.53 µM): 0.46 | relative viability ([3]; first compound 0.08 µM): 0.542 | relative viability ([3]; first compound 0.253 µM): 0.579 | relative viability ([3]; first compound 0.8 µM): 0.643 | relative viability ([3]; first compound 2.53 µM): 0.624 | relative viability ([4]; first compound 0.08 µM): 0.868 | relative viability ([4]; first compound 0.253 µM): 0.798 | relative viability ([4]; first compound 0.8 µM): 0.768 | relative viability ([4]; first compound 2.53 µM): 0.789 | relative viability ([5]; first compound 0.08 µM): 0.736 | relative viability ([5]; first compound 0.253 µM): 0.548 | relative viability ([5]; first compound 0.8 µM): 0.507 | relative viability ([5]; first compound 2.53 µM): 0.452

Cc1cnc(-c2cnc(NCCNc3ccc(C#N)cn3)nc2-c2ccc(Cl)cc2Cl)[nH]1 + Nc1nc2[nH]cc(CCc3ccc(C(=O)N[C@@H](CCC(=O)O)C(=O)O)cc3)c2c(=O)[nH]1 [Pemetrexed] (partner 0.2 µM)
relative viability ([6]; first compound 0.08 µM): 0.746 | relative viability ([6]; first compound 0.253 µM): 0.805 | relative viability ([6]; first compound 0.8 µM): 0.768 | relative viability ([6]; first compound 2.53 µM): 0.722 | relative viability ([2]; first compound 0.08 µM): 0.823 | relative viability ([2]; first compound 0.253 µM): 0.633 | relative viability ([2]; first compound 0.8 µM): 0.721 | relative viability ([2]; first compound 2.53 µM): 0.736 | relative viability ([3]; first compound 0.08 µM): 0.545 | relative viability ([3]; first compound 0.253 µM): 0.723 | relative viability ([3]; first compound 0.8 µM): 0.703 | relative viability ([3]; first compound 2.53 µM): 0.653 | relative viability ([4]; first compound 0.08 µM): 1.08 | relative viability ([4]; first compound 0.253 µM): 1.03 | relative viability ([4]; first compound 0.8 µM): 0.97 | relative viability ([4]; first compound 2.53 µM): 1.07 | relative viability ([5]; first compound 0.08 µM): 0.501 | relative viability ([5]; first compound 0.253 µM): 0.487 | relative viability ([5]; first compound 0.8 µM): 0.478 | relative viability ([5]; first compound 2.53 µM): 0.438

Cc1cnc(-c2cnc(NCCNc3ccc(C#N)cn3)nc2-c2ccc(Cl)cc2Cl)[nH]1 + Nc1ncn([C@H]2C[C@H](O)[C@@H](CO)O2)c(=O)n1 [Decitabine] (partner 2 µM)
relative viability ([2]; first compound 0.08 µM): 0.727 | relative viability ([2]; first compound 0.253 µM): 0.548 | relative viability ([2]; first compound 0.8 µM): 0.671 | relative viability ([2]; first compound 2.53 µM): 0.66 | relative viability ([3]; first compound 0.08 µM): 0.444 | relative viability ([3]; first compound 0.253 µM): 0.453 | relative viability ([3]; first compound 0.8 µM): 0.554 | relative viability ([3]; first compound 2.53 µM): 0.541 | relative viability ([4]; first compound 0.08 µM): 0.779 | relative viability ([4]; first compound 0.253 µM): 0.68 | relative viability ([4]; first compound 0.8 µM): 0.557 | relative viability ([4]; first compound 2.53 µM): 0.63 | relative viability ([5]; first compound 0.08 µM): 0.523 | relative viability ([5]; first compound 0.253 µM): 0.436 | relative viability ([5]; first compound 0.8 µM): 0.442 | relative viability ([5]; first compound 2.53 µM): 0.393 | relative viability ([7]; first compound 0.08 µM): 0.257 | relative viability ([7]; first compound 0.253 µM): 0.254 | relative viability ([7]; first compound 0.8 µM): 0.262 | relative viability ([7]; first compound 2.53 µM): 0.316

Cc1cnc(-c2cnc(NCCNc3ccc(C#N)cn3)nc2-c2ccc(Cl)cc2Cl)[nH]1 + O=C(CCCCCCC(=O)Nc1ccccc1)NO [Vorinostat] (partner 1 µM)
relative viability ([2]; first compound 0.08 µM): 0.753 | relative viability ([2]; first compound 0.253 µM): 0.685 | relative viability ([2]; first compound 0.8 µM): 0.838 | relative viability ([2]; first compound 2.53 µM): 0.648 | relative viability ([3]; first compound 0.08 µM): 0.718 | relative viability ([3]; first compound 0.253 µM): 0.516 | relative viability ([3]; first compound 0.8 µM): 0.241 | relative viability ([3]; first compound 2.53 µM): 0.327 | relative viability ([4]; first compound 0.08 µM): 1.01 | relative viability ([4]; first compound 0.253 µM): 0.947 | relative viability ([4]; first compound 0.8 µM): 0.958 | relative viability ([4]; first compound 2.53 µM): 0.842 | relative viability ([5]; first compound 0.08 µM): 0.381 | relative viability ([5]; first compound 0.253 µM): 0.49 | relative viability ([5]; first compound 0.8 µM): 0.519 | relative viability ([5]; first compound 2.53 µM): 0.472 | relative viability ([8]; first compound 0.08 µM): 1.16 | relative viability ([8]; first compound 0.8 µM): 0.973 | relative viability ([8]; first compound 2.53 µM): 0.888

Cc1cnc(-c2cnc(NCCNc3ccc(C#N)cn3)nc2-c2ccc(Cl)cc2Cl)[nH]1 + O=C(c1cc(Cc2n[nH]c(=O)c3ccccc23)ccc1F)N1CCN(C(=O)C2CC2)CC1 [Olaparib] (partner 8 µM)
relative viability ([1]; first compound 0.08 µM): 0.48 | relative viability ([1]; first compound 0.253 µM): 0.378 | relative viability ([1]; first compound 0.8 µM): 0.448 | relative viability ([1]; first compound 2.53 µM): 0.486 | relative viability ([2]; first compound 0.08 µM): 0.438 | relative viability ([2]; first compound 0.253 µM): 0.387 | relative viability ([2]; first compound 0.8 µM): 0.43 | relative viability ([2]; first compound 2.53 µM): 0.439 | relative viability ([3]; first compound 0.08 µM): 0.723 | relative viability ([3]; first compound 0.253 µM): 0.761 | relative viability ([3]; first compound 0.8 µM): 1.2 | relative viability ([3]; first compound 2.53 µM): 0.865 | relative viability ([9]; first compound 0.08 µM): 0.532 | relative viability ([9]; first compound 0.253 µM): 0.547 | relative viability ([9]; first compound 2.53 µM): 0.468 | relative viability ([4]; first compound 0.08 µM): 0.641 | relative viability ([4]; first compound 0.253 µM): 0.668 | relative viability ([4]; first compound 0.8 µM): 0.681 | relative viability ([4]; first compound 2.53 µM): 0.643 | relative viability ([10]; first compound 0.08 µM): 0.619 | relative viability ([10]; first compound 0.253 µM): 0.608 | relative viability ([10]; first compound 0.8 µM): 0.673 | relative viability ([10]; first compound 2.53 µM): 0.9 | relative viability ([5]; first compound 0.08 µM): 0.827 | relative viability ([5]; first compound 0.253 µM): 0.913 | relative viability ([5]; first compound 0.8 µM): 0.848 | relative viability ([5]; first compound 2.53 µM): 0.561 | relative viability ([7]; first compound 0.08 µM): 0.233 | relative viability ([7]; first compound 0.253 µM): 0.264 | relative viability ([7]; first compound 0.8 µM): 0.288 | relative viability ([7]; first compound 2.53 µM): 0.3 | relative viability ([11]; first compound 0.08 µM): 0.953 | relative viability ([11]; first compound 0.253 µM): 0.957 | relative viability ([11]; first compound 0.8 µM): 0.968 | relative viability ([11]; first compound 2.53 µM): 0.856 | relative viability ([8]; first compound 0.08 µM): 0.77 | relative viability ([8]; first compound 0.253 µM): 0.766 | relative viability ([8]; first compound 0.8 µM): 0.87 | relative viability ([8]; first compound 2.53 µM): 0.709

O=C(O)CCCCC(CCSCc1ccccc1)SCc1ccccc1 (centres undefined) [CPI-613] + CC(=O)Nc1cccc(-n2c(=O)n(C3CC3)c(=O)c3c(Nc4ccc(I)cc4F)n(C)c(=O)c(C)c32)c1 [Trametinib] (partner 0.02 µM)
relative viability ([2]; first compound 5 µM): 0.747 | relative viability ([2]; first compound 15.81 µM): 0.888 | relative viability ([2]; first compound 50 µM): 0.977 | relative viability ([2]; first compound 158.11 µM): 0.786 | relative viability ([2]; first compound 500 µM): 0.955 | relative viability ([3]; first compound 5 µM): 0.454 | relative viability ([3]; first compound 15.81 µM): 0.376 | relative viability ([3]; first compound 50 µM): 0.533 | relative viability ([3]; first compound 158.11 µM): 0.218 | relative viability ([3]; first compound 500 µM): 0.14 | relative viability ([4]; first compound 5 µM): 0.707 | relative viability ([4]; first compound 15.81 µM): 0.739 | relative viability ([4]; first compound 50 µM): 0.751 | relative viability ([4]; first compound 158.11 µM): 0.651 | relative viability ([4]; first compound 500 µM): 0.284 | relative viability ([5]; first compound 5 µM): 0.701 | relative viability ([5]; first compound 50 µM): 0.706 | relative viability ([5]; first compound 158.11 µM): 0.359 | relative viability ([5]; first compound 500 µM): 0.0323

O=C(O)CCCCC(CCSCc1ccccc1)SCc1ccccc1 (centres undefined) [CPI-613] + CC(=O)c1c(C)c2cnc(Nc3ccc(N4CCNCC4)cn3)nc2n(C2CCCC2)c1=O [Palbociclib] (partner 0.5 µM)
relative viability ([2]; first compound 5 µM): 0.497 | relative viability ([2]; first compound 15.81 µM): 0.536 | relative viability ([2]; first compound 50 µM): 0.492 | relative viability ([2]; first compound 158.11 µM): 0.52 | relative viability ([2]; first compound 500 µM): 0.588 | relative viability ([3]; first compound 5 µM): 0.285 | relative viability ([3]; first compound 15.81 µM): 0.302 | relative viability ([3]; first compound 50 µM): 0.299 | relative viability ([3]; first compound 158.11 µM): 0.192 | relative viability ([3]; first compound 500 µM): 0.128 | relative viability ([4]; first compound 5 µM): 1.03 | relative viability ([4]; first compound 15.81 µM): 1.13 | relative viability ([4]; first compound 50 µM): 1.08 | relative viability ([4]; first compound 158.11 µM): 0.708 | relative viability ([4]; first compound 500 µM): 0.301 | relative viability ([5]; first compound 5 µM): 0.57 | relative viability ([5]; first compound 50 µM): 0.557 | relative viability ([5]; first compound 158.11 µM): 0.208 | relative viability ([5]; first compound 500 µM): 0.0276

O=C(O)CCCCC(CCSCc1ccccc1)SCc1ccccc1 (centres undefined) [CPI-613] + NC(=O)Nc1cc(-c2cccc(F)c2)sc1C(=O)N[C@H]1CCCNC1 [AZD7762] (partner 0.2 µM)
relative viability ([1]; first compound 5 µM): 0.133 | relative viability ([1]; first compound 15.81 µM): 0.12 | relative viability ([1]; first compound 50 µM): 0.134 | relative viability ([1]; first compound 158.11 µM): 0.118 | relative viability ([1]; first compound 500 µM): 0.12 | relative viability ([2]; first compound 5 µM): 0.489 | relative viability ([2]; first compound 15.81 µM): 0.454 | relative viability ([2]; first compound 50 µM): 0.437 | relative viability ([2]; first compound 158.11 µM): 0.522 | relative viability ([2]; first compound 500 µM): 0.576 | relative viability ([3]; first compound 5 µM): 0.622 | relative viability ([3]; first compound 15.81 µM): 0.701 | relative viability ([3]; first compound 50 µM): 0.645 | relative viability ([3]; first compound 158.11 µM): 0.626 | relative viability ([3]; first compound 500 µM): 0.665 | relative viability ([4]; first compound 5 µM): 0.899 | relative viability ([4]; first compound 15.81 µM): 0.887 | relative viability ([4]; first compound 50 µM): 0.953 | relative viability ([4]; first compound 158.11 µM): 0.631 | relative viability ([4]; first compound 500 µM): 0.563 | relative viability ([5]; first compound 5 µM): 0.685 | relative viability ([5]; first compound 50 µM): 0.692 | relative viability ([5]; first compound 158.11 µM): 0.273 | relative viability ([5]; first compound 500 µM): 0.0039
